Here are results for 12 compounds from patent US9932335B2 (priority 2013, dated 2018).

One assay addresses T1, M1 receptor (Rattus norvegicus, UniProt P08482).
T1 construct: expressed in transfected cells
T1 sequence (P08482 1-460): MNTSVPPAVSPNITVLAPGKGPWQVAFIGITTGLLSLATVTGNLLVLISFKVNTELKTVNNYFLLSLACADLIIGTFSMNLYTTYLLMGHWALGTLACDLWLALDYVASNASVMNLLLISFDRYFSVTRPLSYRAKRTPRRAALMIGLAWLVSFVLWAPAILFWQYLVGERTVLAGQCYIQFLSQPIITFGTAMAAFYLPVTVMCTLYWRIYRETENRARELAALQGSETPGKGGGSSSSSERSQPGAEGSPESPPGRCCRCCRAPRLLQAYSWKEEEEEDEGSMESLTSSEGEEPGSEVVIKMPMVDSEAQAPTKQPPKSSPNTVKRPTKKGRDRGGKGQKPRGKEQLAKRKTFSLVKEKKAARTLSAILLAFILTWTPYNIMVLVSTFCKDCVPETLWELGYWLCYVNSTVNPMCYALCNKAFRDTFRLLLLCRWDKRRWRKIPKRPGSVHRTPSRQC
Nature of the assay: M1 PAM assay (FLIPR intracellular calcium), rat. Type of assay: cell-based.

In another assay the target is T2, human M1 (Homo sapiens, UniProt P11229).
T2 construct: expressed in transfected cells; host or cells: CHO cells
T2 sequence (P11229 1-460): T1 sequence (P08482 1-460) with V5A, S254T, S309P, K320R, G337A, V413I
Description: M1 PAM assay (FLIPR intracellular calcium, CHO human M1). Type of assay: cell-based. The procedure, abridged: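 CHO cells expressing human M1 were loaded with Fluo-4AM for 60 min at 37 °C in HBSS/20 mM HEPES/2 mM probenecid, pH 7.4, and intracellular Ca2+ was read by FLIPR (1% DMSO final). Agonism was assessed after 2 min compound preincubation against 30 nM acetylcholine. For PAM activity, an acetylcholine EC20 was added after the 2 min preincubation and read 2 min later.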

Each structure is given as a SMILES string. Substitutions are numbered along the chain they refer to. pEC50: −log10 of the molar value. Read-outs that look alike come from different tables or passages of the source.

Regarding `Cc1ccc(Cn2cc(C(=O)N[C@H]3CCCC[C@@H]3O)c3ncccc32)cc1F` [Example 46, 1-(3-fluoro-4-methylbenzyl)-N-((1S,2S)-2-hydroxycyclohexyl)-1H-pyrrolo[3,2-b]pyridine-3-carboxamide], the results for the pEC50 at M1 receptor and at human M1 were 6.35 and 6.59, respectively.
Consider `COc1ccc(Cn2cc(C(=O)N[C@H]3CCCC[C@@H]3O)c3ncccc32)cc1` [Example 47, N-((1S,2S)-2-hydroxycyclohexyl)-1-(4-methoxybenzyl)-1H-pyrrolo[3,2-b]pyridine-3-carboxamide], for which the pEC50 on M1 receptor was 6.66; on human M1, 6.79.
Take `O=C(N[C@H]1CCCC[C@@H]1O)c1cn(Cc2ccc(C(F)(F)F)nc2)c2cccnc12` [Example 48, N-((1S,2S)-2-hydroxycyclohexyl)-1-((6-(trifluoromethyl)pyridin-3-yl)methyl)-1H-pyrrolo[3,2-b]pyridine-3-carboxamide]: the pEC50 was 6.38 at M1 receptor and 5.75 on human M1.
Turning to `O=C(N[C@H]1CCCC[C@@H]1O)c1cn(Cc2ccc(-c3ccccc3)cc2)c2cccnc12` [Example 49, 1-(biphenyl-4-ylmethyl)-N-((1S,2S)-2-hydroxycyclohexyl)-1H-pyrrolo[3,2-b]pyridine-3-carboxamide], the pEC50 at M1 receptor was 6.29; on human M1, 6.52.
On the same counts, the results for `Cn1ncc2cc(Cn3cc(C(=O)N[C@H]4CCCC[C@@H]4O)c4ncccc43)ccc21` [Example 52, N-((1S,2S)-2-hydroxycyclohexyl)-1-((1-methyl-1H-indazol-5-yl)methyl)-1H-pyrrolo[3,2-b]pyridine-3-carboxamide] are 6.79 and 7.15.
On the same counts, the results for `Cn1cc(-c2ccc(Cn3cc(C(=O)N[C@H]4CCCC[C@@H]4O)c4ncccc43)cc2)cn1` [Example 55, N-((1S,2S)-2-hydroxycyclohexyl)-1-(4-(1-methyl-1H-pyrazol-4-yl)benzyl)-1H-pyrrolo[3,2-b]pyridine-3-carboxamide] are 7.86 and 7.95.
Consider `Cn1cc(-c2ccc(Cn3cc(C(=O)N[C@H]4CCCC[C@@H]4O)c4ncccc43)cn2)cn1` [Example 56, N-((1S,2S)-2-hydroxycyclohexyl)-1-((6-(1-methyl-1H-pyrazol-4-yl)pyridin-3-yl)methyl)-1H-pyrrolo[3,2-b]pyridine-3-carboxamide], for which the pEC50 at M1 receptor was 7.15; on human M1, 7.46.
Turning to `O=C(N[C@H]1CCCC[C@@H]1O)c1cn(Cc2ccc(-c3nccs3)cc2)c2cccnc12` [Example 60, N-((1S,2S)-2-hydroxycyclohexyl)-1-(4-(thiazol-2-yl)benzyl)-1H-pyrrolo[3,2-b]pyridine-3-carboxamide], the pEC50 on M1 receptor was 6.90; at human M1 it was 7.42.
Consider `CNC(=O)c1ccc(Cn2cc(C(=O)N[C@H]3CCCC[C@@H]3O)c3ncccc32)cc1` [Example 61, N-((1S,2S)-2-hydroxycyclohexyl)-1-(4-(methylcarbamoyl)benzyl)-1H-pyrrolo[3,2-b]pyridine-3-carboxamide], for which the pEC50 was 7.74 on M1 receptor and 8.04 on human M1.
On the same counts, the results for `O=C(NC1CCOCC1)c1cn(Cc2ccc3[nH]ncc3c2)c2cccnc12` [Example 62] are 6.49 and 6.37.
On the same counts, the results for `Cn1cc(-c2ccc(Cn3cc(C(=O)NCc4cccnc4)c4ncccc43)c(F)c2)cn1` [Example 64] are 5.97 and 6.58.
Take `Cn1cc(-c2ccc(Cn3cc(C(=O)NCC4(O)CC4)c4ncccc43)c(F)c2)cn1` [Example 65, 1-(2-fluoro-4-(1-methyl-1H-pyrazol-4-yl)benzyl)-N-((1-hydroxycyclopropyl)methyl)-1H-pyrrolo[3,2-b]pyridine-3-carboxamide]: the pEC50 is 5.86 at M1 receptor (rat, modulator activity with EC20 of acetylcholine, FLIPR Ca2+, read-out: EC50 rat PAM) and 6.50 on human M1 (human M1 in CHO cells, modulator activity with EC20 of acetylcholine, FLIPR Ca2+, read-out: EC50 h PAM).
